Laboratory results reported in patent publication US20230390384A1 (priority 2020, published 2023).
“Also recorded” adds a separate entry of the source.

System: RBD, a South African mutant antigen of COVID-19
Parameters: species or system SARS-CoV-2
Conditions: in vivo

| Substance | antigen-specific antibody titer (RBD South African mutant) |
| --- | --- |
| FSL-1 | higher antibody titer; also recorded: highest antibody titer |
| N-palmitoyl-S-[2,3-bis(palmitoyloxy)-(2RS)-propyl]-[R]-cystein-SKKKK [Pam3CSK4] | higher antibody titer; also recorded: highest antibody titer |
